According to US20240335382A1, “NANO- OR MICRO-EMULSION COMPOSITIONS AND METHODS OF USE THEREOF” (Nutraceutical Wellness, Inc., priority 2021, published 2024):

System: skin of human subjects
Assay: Acute primary skin patch test, single 48-hour application
Type: in vivo
Details: positive control, 55 subjects completing study
Description: To determine the primary (acute) irritation potential of a test material after a single application to the skin of human subjects for 48 hours.
Test materials to be tested under occlusive conditions were placed on an 8-millimeter aluminum Finn Chamber® (Epitest Ltd. Oy, Tuusula, Finland) supported on Scanpor® Tape (Norgesplaster A/S, Kristiansand, Norway) or an 8-millimeter filter paper coated aluminum Finn Chamber® AQUA supported on a thin flexible transparent polyurethane rectangular film coated on one side with a medical grade acrylic adhesive, consistent with adhesive used in state-of-the-art hypoallergenic surgical tapes or a 7 mm IQ-ULTRA® closed cell system which is made of additive-free polyethylene plastic foam with a filter paper incorporated (It is supplied in units of 10 chambers on a hypoallergenic non woven adhesive tape; the width of the tape is 52 mm and the length is 118 mm) or other equivalents.
Test materials to be tested under semi-occlusive conditions were placed on a test strip with a Rayon/Polypropylene pad or on a 7.5 mm filter paper disc affixed to a strip of hypoallergenic tape (Johnson & Johnson 1 inch First Aid Cloth Tape). […]
Trained skin grading laboratory personnel removed the patch and evaluated the test sites.
In the event of an adverse reaction, the area of erythema and edema is measured. […]

SMILES: CCCCCCCCCCCCOS(=O)(=O)[O-].[Na+] [2.0% Sodium Lauryl Sulfate Solution, Sodium Lauryl Sulfate]
- subjects with a Grade 1 reaction: 16 subjects
